Assay [1] deals with T1, PRMT5 (Homo sapiens, UniProt O14744).
T1 construct: purchased Viva (custom protein)
The assay can be described thus: PRMT5 biochemical IC50 assay with MTA as cofactor. The note with it: PRMT5, MTA as cofactor; read-out: MTA IC50.

Assay [2] has as its system HAP1 MTAP-deleted cell line. The assay can be described thus: Viability assay, MTAP-deleted cell line. It counts as cell-based. The note with it: Homo sapiens, HAP1, viability, HAP1 MTAP-deleted cell line; read-out: HAP1 MTAP deleted viability. The text has this: Table 1 additionally indicates IC50 values in a viability assay for the MTAP-deleted cell line (column 10), indicating the effect of treatment with compound on cell survival.

Assay [3] addresses T1, PRMT5. The assay can be described thus: PRMT5 biochemical IC50 assay with no cofactor. The note with it: PRMT5, no cofactor; read-out: No Cofactor/ rel IC50. The text has this: Table 1 indicates IC50 values (μM) against PRMT5 for exemplary compounds in the presence of SAM as cofactor, with no cofactor, and with MTA as cofactor, respectively (columns 4-6). […] Ki values can be calculated from the IC50 values as described in the Examples section. As detailed in the Examples section, for the assay performed in the presence of SAM, IC50=Ki×1.5 (Ki=IC50/1.5).

The target of assay [4] is T1, PRMT5. The assay can be described thus: PRMT5 biochemical IC50 assay with SAM as cofactor. The note with it: PRMT5, SAM as cofactor; read-out: SAM IC50.
Assay [5] relates to HAP1 MTAP-deleted cell line. The assay can be described thus: SDMA in-cell western assay, HAP1 MTAP-deleted. The assay is classed as cell-based. The note with it: for IC50: Homo sapiens, HAP1, SDMA in-cell western, HAP1 MTAP-deleted, read-out: HAP 1 MTAP deleted IC50; for MTAP intact/deleted ratio: IC50 ratio HAP1 MTAP-intact / HAP1 MTAP-deleted, SDMA in-cell western. A digest of the protocol: (§1)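 Compounds were tested in HAP1 cells differing only in MTAP status (endogenous expression versus null). Cellular SDMA levels were then measured by in-cell western, giving an IC50 in each background.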

Assay [6] has as its system HAP1 MTAP-intact cell line. The assay can be described thus: SDMA in-cell western assay, HAP1 MTAP-intact. The assay is classed as cell-based. The note with it: Homo sapiens, HAP1, SDMA in-cell western, HAP1 MTAP-intact; read-out: MTAP HAP1 intact IC50. A digest of the protocol:
as §1

T1 sequence (O14744 whole entry): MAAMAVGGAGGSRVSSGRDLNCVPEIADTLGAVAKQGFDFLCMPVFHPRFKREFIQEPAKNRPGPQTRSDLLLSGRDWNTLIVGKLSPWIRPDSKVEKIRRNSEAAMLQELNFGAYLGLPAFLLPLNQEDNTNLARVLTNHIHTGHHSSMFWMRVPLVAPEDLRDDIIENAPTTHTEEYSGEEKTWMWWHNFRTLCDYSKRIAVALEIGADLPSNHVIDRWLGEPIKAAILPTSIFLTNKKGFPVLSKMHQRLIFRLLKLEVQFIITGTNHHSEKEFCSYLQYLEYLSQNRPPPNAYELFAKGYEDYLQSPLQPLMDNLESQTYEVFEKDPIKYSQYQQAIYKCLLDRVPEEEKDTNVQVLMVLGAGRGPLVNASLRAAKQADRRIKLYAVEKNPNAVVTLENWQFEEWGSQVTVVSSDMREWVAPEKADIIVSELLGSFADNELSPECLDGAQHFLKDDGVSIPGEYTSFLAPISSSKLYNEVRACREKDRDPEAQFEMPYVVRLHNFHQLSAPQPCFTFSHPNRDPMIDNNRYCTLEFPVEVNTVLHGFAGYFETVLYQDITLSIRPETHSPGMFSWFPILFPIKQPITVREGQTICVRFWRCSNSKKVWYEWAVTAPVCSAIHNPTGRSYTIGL
T1 sequence (Q9BQA1 whole entry partner): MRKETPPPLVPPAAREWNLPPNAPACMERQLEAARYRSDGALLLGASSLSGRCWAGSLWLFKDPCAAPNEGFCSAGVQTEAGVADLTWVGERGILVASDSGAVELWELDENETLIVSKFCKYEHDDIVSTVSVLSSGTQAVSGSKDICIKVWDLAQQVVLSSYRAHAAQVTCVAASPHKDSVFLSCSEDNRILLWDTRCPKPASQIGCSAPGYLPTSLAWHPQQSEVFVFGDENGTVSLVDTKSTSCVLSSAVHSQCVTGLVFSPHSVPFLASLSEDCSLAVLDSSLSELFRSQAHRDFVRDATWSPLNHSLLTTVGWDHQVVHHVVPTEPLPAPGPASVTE

For the compound `COc1ncc(NC(=O)C(=O)N2C[C@@H](C)CC[C@@H]2c2ccc3sc(CCN4CCCC4)nc3c2)cc1C(N)=O` [Compound 1288, 2-methoxy-5-(2-((2R,53)-5-methyl-2-(2-(2-(pyrrolidin-1-yl)ethyl)benzo[d]thiazol-5-yl)piperidin-1-yl)-2-oxoacetamido)nicotinamide], the IC50 on PRMT5 [1] is less than 50 nM; in assay [2], less than 1000 nM; at PRMT5 [3], 50 to 500 nM; at PRMT5 [4], 50 to 500 nM; in assay [5], less than 100 nM; in assay [6], 100 to 1000 nM. Further, in assay [5], the “MTAP intact/deleted ratio” value was “A (an IC50 ratio greater than or equal to 10 fold)”.

`CCc1cc(NC(=O)C(=O)N2C[C@@H](C)CC[C@@H]2c2cccc(OC[C@@H](C)N(C)C)c2)cnc1N` [Compound 1290, N-(6-amino-5-ethylpyridin-3-yl)-2-((2R,5S)-2-(3-(2-(dimethylamino)propoxy)phenyl)-5-methylpiperidin-1-yl)-2-oxoacetamide]: the IC50 is less than 50 nM at PRMT5 [1]; less than 1000 nM in assay [2]; less than 50 nM at PRMT5 [3]; 50 to 500 nM at PRMT5 [4]; less than 100 nM in assay [5]; 100 to 1000 nM in assay [6]. For the same compound, in assay [5], the “MTAP intact/deleted ratio” value was “A (an IC50 ratio greater than or equal to 10 fold)”.

With `CCc1cc(NC(=O)C(=O)N2C[C@@H](C)CC[C@@H]2c2ccc(OCCN(C)C)cc2)cnc1N` [Compound 1292, N-(6-amino-5-ethylpyridin-3-yl)-2-((2R,5S)-2-(4-(2-(dimethylamino)ethoxy)phenyl)-5-methylpiperidin-1-yl)-2-oxoacetamide], the IC50 was less than 50 nM on PRMT5 [1]; less than 1000 nM in assay [2]; less than 50 nM on PRMT5 [3]; 50 to 500 nM at PRMT5 [4]; less than 100 nM in assay [5]; 100 to 1000 nM in assay [6]. Further, in assay [5], the “MTAP intact/deleted ratio” value is “A (an IC50 ratio greater than or equal to 10 fold)”.

As to `CCc1cc(NC(=O)C(=O)N2C[C@@H](C)CC[C@@H]2c2ccc(N3CCN(C)C[C@H]3C)nc2)cnc1N` [Compound 1294, N-(6-amino-5-ethyl-3-pyridyl)-2-[(2R,5S)-2-[6-[(2R)-2,4-dimethylpiperazin-1-yl]-3-pyridyl]-5-methyl-1-piperidyl]-2-oxo-acetamide], the IC50 on PRMT5 [1] was less than 50 nM; in assay [2], less than 1000 nM; at PRMT5 [3], less than 50 nM; on PRMT5 [4] it was 50 to 500 nM; in assay [5], less than 100 nM; in assay [6], 100 to 1000 nM. For the same compound, the “MTAP intact/deleted ratio” value in assay [5] is given as “A (an IC50 ratio greater than or equal to 10 fold)”.

Regarding `Cc1cc(NC(=O)C(=O)N2C[C@@H](C)CC[C@@H]2c2ccc3sc(CCN4CCCC4)nc3c2)cnc1N` [Compound 1296, N-(6-amino-5-methylpyridin-3-yl)-2-((2R,5S)-5-methyl-2-(2-(2-(pyrrolidin-1-yl)ethyl)benzo[d]thiazol-5-yl)piperidin-1-yl)-2-oxoacetamide], the IC50 on PRMT5 [1] is less than 50 nM; in assay [2], less than 1000 nM; on PRMT5 [3], less than 50 nM; on PRMT5 [4], less than 50 nM; in assay [5], less than 100 nM; in assay [6], less than 100 nM. For the same compound, the “MTAP intact/deleted ratio” value in assay [5] is “A (an IC50 ratio greater than or equal to 10 fold)”.

Regarding `CCc1cc(NC(=O)C(=O)N2C[C@@H](C)CC[C@@H]2c2ccc3sc(C45CCN(CC4)C5)nc3c2)cnc1N` [Compound 1298, 2-((2R,5S)-2-(2-(1-azabicyclo[2.2.1]heptan-4-yl)benzo[d]thiazol-5-yl)-5-methylpiperidin-1-yl)-N-(6-amino-5-ethylpyridin-3-yl)-2-oxoacetamide], the IC50 on PRMT5 [1] is less than 50 nM; in assay [2], less than 1000 nM; on PRMT5 [3], less than 50 nM; at PRMT5 [4] it was 50 to 500 nM; in assay [5], less than 100 nM; in assay [6], less than 100 nM. Moreover, in assay [5], the “MTAP intact/deleted ratio” value is recorded as “B (an IC50 ratio greater than or equal to 3 fold but lower than 10 fold)”.

These data come from patent US11999727B2 (Tango Therapeutics, Inc., priority 2020, dated 2024).
